Patent US4064137A (priority 1976, dated 1977)
Values joined by “and” are separate entries in the source; they are usually repeats but may differ in a detail not shown here. Equal values may be shown once. Read-outs that look alike come from different tables or passages of the source.

Experiments:
spleen cells of a mouse = assay type: cell-based
Vaccinia virus = assay type: in vivo, mouse; conditions: for Number of pox / Inhibition percent: intraperitoneal; for Number of pox: 8th day after inoculation; for Inhibition percent: 8th day, vs control mouse

COC(=O)C1N2C(=O)C3(CC(C#N)=C(c4ccccc4)N3)C2SC1(C)C (stereo not drawn) [3'-Cyano-2'-phenyl-2'-pyrroline-5'-spiro-6-penicillanic acid methyl ester]
Interferon titre (spleen cells of a mouse): 320 unit and 160 unit
units of interferon induced (spleen cells of a mouse): 320 units
Number of pox (Vaccinia virus; 0.49 mg/kg × 4 times): 16.0
Inhibition percent (Vaccinia virus; 0.49 mg/kg × 4 times): 34.7%
Number of pox (Vaccinia virus; 1.95 mg/kg × 4 times): 9.1
Inhibition percent (Vaccinia virus; 1.95 mg/kg × 4 times): 62.9%
Number of pox (Vaccinia virus; 7.8 mg/kg × 4 times): 11.2
Inhibition percent (Vaccinia virus; 7.8 mg/kg × 4 times): 54.3%
interferon inducibility (in words) (Vaccinia virus; conclusion after in vivo test): excellent interferon inducibility
